Experimental data from ChEMBL document CHEMBL1201862, “PubChem BioAssay data set” (2004).
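Briefly, cells in 96-well plates were exposed to five compound concentrations for 48 h, and endpoints were estimated by linear interpolation. GI50 = concentration required for 50% inhibition of growth.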 Calls of active or inactive are those of the source. No stated cut-off is given here; in the data, active = GI50 up to about 1.1 µM and inactive = higher.

Assays:
Test in all cases: inhibition of tumour cell growth, NCI panel, 48 h
LOX IMVI = test system: LOX IMVI
TK-10 = test system: TK-10
UO-31 = test system: UO-31
Hs-578T = test system: Hs-578T
NCI-H460 = test system: NCI-H460
MOLT-4 = test system: MOLT-4
M14 = test system: M14
MCF7 = test system: MCF7
MDA-N = test system: MDA-N
BT-549 = test system: BT-549
SF-539 = test system: SF-539
OVCAR-3 = test system: OVCAR-3
HOP-62 = test system: HOP-62
SNB-19 = test system: SNB-19
CCRF-CEM = test system: CCRF-CEM
NCI-H522 = test system: NCI-H522
HL-60 = test system: HL-60
T47D = test system: T47D
SR = test system: SR
RPMI-8226 = test system: RPMI-8226

Row | SMILES | GI50 (LOX IMVI) | GI50 (TK-10) | GI50 (UO-31) | GI50 (Hs-578T) | GI50 (NCI-H460) | GI50 (MOLT-4) | GI50 (M14) | GI50 (MCF7) | GI50 (MDA-N) | GI50 (BT-549) | GI50 (SF-539) | GI50 (OVCAR-3) | GI50 (HOP-62) | GI50 (SNB-19) | GI50 (CCRF-CEM) | GI50 (NCI-H522) | GI50 (HL-60) | GI50 (T47D) | GI50 (SR) | GI50 (RPMI-8226)
1 | CCOC(=O)/C=C(/C(=O)OCC)n1ccc(=O)n(CC(=O)OCC)c1=O | 0.869 µM (active) | 1.23 µM (inactive) | 1.63 µM (inactive) | 4.9 µM (inactive) | 3.89 µM (inactive) | 0.243 µM (active) | 1.37 µM (inactive) | 0.471 µM (active) | 2.44 µM (inactive) | 2.08 µM (inactive) | 2.96 µM (inactive) | 1.1 µM (active) | 17.2 µM (inactive) | 10.8 µM (inactive) | 0.169 µM (active) | 0.196 µM (active) | 0.143 µM (active) | 0.57 µM (active) | 1.35 µM (inactive) | 
2 | Nc1nc2cc(Cl)ccc2n1N | > 100 µM (inactive) | > 100 µM (inactive) | > 100 µM (inactive) | > 100 µM (inactive) |  | > 100 µM (inactive) | > 100 µM (inactive) | > 100 µM (inactive) | > 100 µM (inactive) | 45.5 µM (inactive) | > 100 µM (inactive) |  | 87.1 µM (inactive) | > 100 µM (inactive) | > 100 µM (inactive) | > 100 µM (inactive) | > 100 µM (inactive) | > 100 µM (inactive) | > 100 µM (inactive) | > 100 µM (inactive)
3 | CC(Br)C(=O)NC(CO)C(=O)O (centres undefined) | > 100 µM (inactive) | > 100 µM (inactive) | > 100 µM (inactive) | > 100 µM (inactive) | > 100 µM (inactive) | > 100 µM (inactive) | > 100 µM (inactive) | > 100 µM (inactive) | > 100 µM (inactive) | > 100 µM (inactive) | > 100 µM (inactive) | > 100 µM (inactive) | > 100 µM (inactive) | > 100 µM (inactive) | > 100 µM (inactive) | > 100 µM (inactive) | > 100 µM (inactive) | > 100 µM (inactive) | > 100 µM (inactive) | > 100 µM (inactive)
4 | OCCOCCN1CCN(c2nc(N3CCCC3)c3nc(Cl)c(NCc4ccccc4)nc3n2)CC1 | 10.5 µM (inactive) | 12.4 µM (inactive) | 9.4 µM (inactive) | 17.7 µM (inactive) | 11.5 µM (inactive) | 10.7 µM (inactive) | 11.6 µM (inactive) | 13.9 µM (inactive) | 10.3 µM (inactive) | 15.3 µM (inactive) | 24.8 µM (inactive) | 13.8 µM (inactive) | 12.6 µM (inactive) | 15.3 µM (inactive) | 12.7 µM (inactive) | 15.4 µM (inactive) | 12.1 µM (inactive) | 13.2 µM (inactive) | 4.38 µM (inactive) | 7.64 µM (inactive)
5 | CC1=C2C(=C[C@@](C)(CO)[C@@H]2O)C(=O)[C@](C)(O)C12CC2 [ILLUDIN] | 0.00313 µM (active) | 0.0223 µM (active) | 0.0147 µM (active) | 0.0169 µM (active) | 0.00147 µM (active) | 0.00731 µM (active) | 0.00891 µM (active) | 0.00284 µM (active) | < 0.0117 µM (active) | 0.00658 µM (active) | 0.00506 µM (active) | 0.0187 µM (active) | 0.00705 µM (active) | 0.0282 µM (active) | 0.0169 µM (active) | 0.00352 µM (active) | 0.00427 µM (active) | 0.0123 µM (active) | 0.00182 µM (active) | 0.855 µM (active)
6 | COc1ccc(/C=C(\C#N)c2nc(-c3cc4ccccc4oc3=O)cs2)cc1 | 30.5 µM (inactive) | 26.2 µM (inactive) | 23.2 µM (inactive) | 24.6 µM (inactive) | 21.4 µM (inactive) | > 100 µM (inactive) | 24.8 µM (inactive) | 55.7 µM (inactive) | 44.5 µM (inactive) | 14.2 µM (inactive) | 21 µM (inactive) |  | 15.2 µM (inactive) | 16.4 µM (inactive) | > 100 µM (inactive) | 19.4 µM (inactive) | > 100 µM (inactive) | 52.5 µM (inactive) | > 100 µM (inactive) | 42.9 µM (inactive)
7 | Cc1ccc(Nc2n[nH]c(NS(=O)(=O)c3cc(C)c(Cl)cc3S)n2)cc1 | > 100 µM (inactive) | > 100 µM (inactive) | > 100 µM (inactive) | > 100 µM (inactive) | > 100 µM (inactive) | > 100 µM (inactive) | > 100 µM (inactive) | > 100 µM (inactive) | > 100 µM (inactive) | > 100 µM (inactive) | > 100 µM (inactive) | > 100 µM (inactive) | > 100 µM (inactive) | > 100 µM (inactive) | > 100 µM (inactive) | > 100 µM (inactive) | > 100 µM (inactive) | > 100 µM (inactive) | > 100 µM (inactive) | > 100 µM (inactive)
8 | O=C(NO)c1cccc(OCc2ccc(Br)cc2)c1 | 2.11 µM (inactive) | 10.5 µM (inactive) | 2.77 µM (inactive) | 13.1 µM (inactive) | 3.06 µM (inactive) | 2.03 µM (inactive) | 2.79 µM (inactive) | 2.45 µM (inactive) | 9.02 µM (inactive) | 7.71 µM (inactive) | 4.72 µM (inactive) | 3.85 µM (inactive) | 4.97 µM (inactive) | 9.35 µM (inactive) | 1.91 µM (inactive) | 1.41 µM (inactive) | 3.01 µM (inactive) | 3.06 µM (inactive) | 2.29 µM (inactive) | 2.74 µM (inactive)
9 | Cc1n[nH]c(C(F)(F)F)c1/N=N/N(C)C | 1.47 µM (inactive) | 7.91 µM (inactive) | 1.61 µM (inactive) | 15.6 µM (inactive) | 10.5 µM (inactive) | 2.48 µM (inactive) | 14.7 µM (inactive) | 3.5 µM (inactive) | > 100 µM (inactive) | 11.7 µM (inactive) | 5.28 µM (inactive) | 5.16 µM (inactive) | 10 µM (inactive) | 15.1 µM (inactive) | 2.63 µM (inactive) | 1.37 µM (inactive) | 12.6 µM (inactive) | 2.23 µM (inactive) | 4.47 µM (inactive) | 2.14 µM (inactive)
10 | Cc1ccc([N+](=O)[O-])cc1S(=O)(=O)Nc1ccc(C(=O)/C=C/c2ccccc2)cc1 | 19 µM (inactive) | 31.3 µM (inactive) | 18.4 µM (inactive) | 50.6 µM (inactive) | 18.1 µM (inactive) | 4.51 µM (inactive) | 20 µM (inactive) | 10.1 µM (inactive) | 20.2 µM (inactive) | 17.7 µM (inactive) | 30.5 µM (inactive) | 15.7 µM (inactive) | 17.7 µM (inactive) | 18.6 µM (inactive) | 20 µM (inactive) | 20.2 µM (inactive) | 25.3 µM (inactive) | 16.3 µM (inactive) | 22.1 µM (inactive) | 11.5 µM (inactive)
11 | O=c1[nH]cc(/C=N\Nc2ccccc2)c(=O)[nH]1 | 6.14 µM (inactive) | > 100 µM (inactive) | > 100 µM (inactive) | > 100 µM (inactive) | 47.8 µM (inactive) |  | > 100 µM (inactive) | > 100 µM (inactive) | > 100 µM (inactive) | > 100 µM (inactive) | > 100 µM (inactive) | 21.8 µM (inactive) | > 10 µM (inactive) | > 100 µM (inactive) | > 100 µM (inactive) | > 100 µM (inactive) | 5.78 µM (inactive) | 9.23 µM (inactive) | > 100 µM (inactive) | > 100 µM (inactive)
12 | Nc1ccc(C(=O)Nn2c(-c3ccccc3)nc3ccccc3c2=O)cc1 | > 100 µM (inactive) | > 100 µM (inactive) | > 100 µM (inactive) | 14.1 µM (inactive) | > 100 µM (inactive) | > 100 µM (inactive) | > 100 µM (inactive) | > 100 µM (inactive) | > 100 µM (inactive) | > 100 µM (inactive) | > 100 µM (inactive) | > 100 µM (inactive) | > 100 µM (inactive) | > 100 µM (inactive) | > 100 µM (inactive) | > 100 µM (inactive) | > 100 µM (inactive) | > 100 µM (inactive) | > 100 µM (inactive) | > 100 µM (inactive)
13 | CC1=C(O)C(=O)C=C2C1=CC=C1[C@@]2(C)CC[C@@]2(C)C3C[C@@H](C)C(=O)[C@@H](O)[C@]3(C)CC[C@]12C (some centres undefined) | 1.5 µM (inactive) | 1.84 µM (inactive) | 1.92 µM (inactive) | 4.18 µM (inactive) | 5.58 µM (inactive) | 0.745 µM (active) | 1.64 µM (inactive) | 2.77 µM (inactive) | 1.69 µM (inactive) | 1.75 µM (inactive) | 2.14 µM (inactive) | 1.88 µM (inactive) | 6.38 µM (inactive) | 4.15 µM (inactive) | 0.33 µM (active) | 1.05 µM (active) | 0.641 µM (active) | 1.64 µM (inactive) | 0.3 µM (active) | 1.25 µM (inactive)
14 | COC(=O)c1c(O)ccc2c1c1c(n2Cc2ccccn2)C(=O)c2ccccc2C1=O |  | 99.8 µM (inactive) | 87.9 µM (inactive) | 46.1 µM (inactive) | 40.3 µM (inactive) | 94.8 µM (inactive) | > 100 µM (inactive) | 54.1 µM (inactive) | 97.5 µM (inactive) | > 100 µM (inactive) | 17.1 µM (inactive) | 18.1 µM (inactive) | 26.7 µM (inactive) | 86.5 µM (inactive) | 80 µM (inactive) | 15.8 µM (inactive) | 62.2 µM (inactive) | 32 µM (inactive) | 22 µM (inactive) | 25.3 µM (inactive)
